Reference: patent publication US8212022B2, “Effect of carbohydrate concentration on sucralose extraction efficiency” (Tate & Lyle Technology Limited, priority 2008, dated 2012)

Assay: Partition coefficient K of sucralose between ethyl acetate and water (equal volumes)
Assay type: physicochemical
Conditions: for partition coefficient, K: equal volumes of ethyl acetate and water
Text: Unless the context indicates otherwise, in the specification and claims, the terms organic solvent, first organic solvent, second organic solvent, tetrachloro saccharide, trichloro saccharide, dichloro saccharide, salt, sucralose-6-ester, carbohydrate, and similar terms also include mixtures of such materials. The term saccharide includes monosaccharide, disaccharides, and polysaccharides. Solvent means a liquid that dissolves another material. An aqueous solvent is one in which water is the primary (greater than 50 vol % of the solvents present) or only solvent. Partition coefficient, K, of a carbohydrate between an organic solvent and water is the concentration of the carbohydrate in the organic phase divided by the concentration of the carbohydrate in the aqueous phase when equal volumes of organic solvent and water are used. […] Crystallization includes processes in which a solution is rendered saturated or supersaturated with respect to a dissolved component, and the formation of crystals of this component is achieved. The initiation of crystal formation can be spontaneous, or it can require the addition of seed crystals. Crystallization also describes the situation in which a solid or liquid material is dissolved in a solvent to yield a solution which is then rendered saturated or supersaturated so as to obtain crystals. Also, included in the term crystallization are the ancillary processes of washing the crystals with one or more solvents, drying the crystals, and harvesting the final product so obtained. Unless otherwise specified, all percentages are percentages by weight, all temperatures are in degrees Centigrade (degrees Celsius), and all solvent ratios are volume to volume.
Aqueous solutions of sucralose were prepared at various carbohydrate concentrations. An equal volume of ethyl acetate was then added to each solution and the two phases mixed thoroughly. After the two phases separated, the carbohydrate concentration in each phase was determined. The K value was calculated by dividing the concentration of sucralose in the ethyl acetate phase by the concentration of sucralose in the aqueous phase.

Row | SMILES | partition coefficient, K (initial concentration of sucralose in the aqueous phase about 5 wt %) | partition coefficient, K (initial concentration of sucralose in the aqueous phase about 15 wt %) | partition coefficient, K (initial concentration of sucralose in the aqueous phase about 16 wt %) | partition coefficient compared with sucralose (organic solvent such as ethyl acetate and water, equal volumes, same conditions as sucralose)
1 | OC[C@H]1O[C@H](O[C@]2(CCl)O[C@H](CCl)[C@@H](O)[C@@H]2O)[C@H](O)[C@@H](O)[C@H]1Cl [sucralose, 4,1′,6′-trichloro-4,1′,6′-trideoxygalactosucrose] | 0.4 | about 1.1 | about 1.2 | 
2 | CC(=O)OC[C@H]1O[C@H](O[C@]2(CCl)O[C@H](CCl)[C@@H](O)[C@@H]2O)[C@H](O)[C@@H](O)[C@H]1Cl [sucralose-6-acetate] |  |  |  | larger that the corresponding value for sucralose
